We go through 26 compounds from patent US10017520B2, “Myc modulators and uses thereof” (Massachusetts Institute of Technology, priority 2014, dated 2018).

One may read the IC50 as the concentration needed to halve the response being measured.

Where only a bound is given, the exact number is not on record here.

Holding throughout (type): cell-based
Assay [1] relates to c-Myc. Briefly: c-Myc reporter gene assay (Qiagen) in HEK293T cells. As to conditions: treatment 16 hours, Firefly/Renilla ratio; for IC50: Homo sapiens, HEK-293T. The protocol:
Compound 1's activity against Myc was measured as a Firefly/Renilla ratio, using the Myc reporter assay (Qiagen) in HEK293T cells after treatment with compound 1 for 16 hours. Results are expressed as a mean+/−SD (n=3). SD: standard deviation.
Select compounds described herein that were SMM assay positives were evaluated in several versions of a c-Myc reporter gene assay, including a commercial assay from Qiagen. The compounds' activities against c-Myc were measured as a Firefly/Renilla ratio, using the Myc reporter assay (Qiagen) in HEK293T cells after treatment with the compounds for 16 hours.
(In general: A reporter such as luciferase makes a cellular process visible.)

In assay [2] the test system is Namalwa cells. Briefly: Cell viability, CELL TITER GLO assay (Promega), Namalwa cells. The protocol:
(§1) FIGS. 2A to 2E show exemplary results of cell viability assay of compound 1. […] Results were expressed as a mean+/−SEM (n=3). RLU: Relative Luminescence Units.
(§2) The effect of compound 1 on cell viability in several cancer cell lines were determined. The cancer cell lines employed in the assay included those corresponding to hematopoietic and solid tumors. Exemplary results are shown in FIGS. 2A to 2E, where viability was assessed by CELL TITER GLO assay (Promega). Compound 1 was also submitted in a blinded fashion to the National Cancer Institute's CTD cancer cell line profiling pipeline, which enabled sensitivity profiling in about 800 cancer cell lines with annotation of specific genomic lesions that impart on human cancers (FIGS. 3A to 3B). […] The effects of other compounds described herein on cell viability in several cancer cell lines were also determined, and exemplary results are shown in Table 2, where viability was assessed by CELL TITER GLO assay (Promega).

In assay [3] the test system is NCIH1975 cells. As to the kind of experiment: Cell viability, CELL TITER GLO assay (Promega), NCIH1975 cells. As to conditions: Homo sapiens, NCI-H1975. The protocol: as §1, §2
Assay [4] has as its system Eu-Myc Arf −/− cells. As to the kind of experiment: Cell viability, CELL TITER GLO assay (Promega), Eu-Myc Arf −/− cells. As to the method: as §2
On the technique in general: In ATP-based viability assays light output follows the ATP content of the culture.

For the compound `CC(C)N1C(=O)S/C(=C\c2ccc(Sc3nc4cccnc4[nH]3)o2)C1=O` [Compound 10, (Z)-5-((5-((3H-imidazo[4,5-b]pyridin-2-yl)thio)furan-2-yl)methylene)-3-isopropylthiazolidine-2,4-dione], the IC50 in assay [1] (16 h) was 5.6 µM; in assay [2] it was more than 50 µM; in assay [3], more than 50 µM; in assay [4] it was 33.1 µM.

Turning to `CC(C)N1C(=O)S/C(=C\c2ccc(Sc3nc4ccc(Cl)cc4[nH]3)o2)C1=O` [Compound 4, (Z)-5-((5-((6-chloro-1H-benzo[d]imidazol-2-yl)thio)furan-2-yl)methylene)-3-isopropylthiazolidine-2,4-dione], the IC50 in assay [1] (16 h) was 0.79 µM; in assay [2], 12.4 µM; in assay [3] it was 17.3 µM; in assay [4], 11 µM.

As for `OCc1ccc(Sc2nc3ccccc3[nH]2)o1` [Compound 40, (5-((1H-benzo[d]imidazol-2-yl)thio)furan-2-yl)methanol], the IC50 in assay [1] (16 h) was more than 40 µM; in assay [2], more than 50 µM; in assay [3] it was more than 50 µM; in assay [4] it was 14.1 µM.

Take `CC(C)N1C(=O)S/C(=C\c2ccc(Sc3nc4ccc(C(F)(F)F)cc4[nH]3)o2)C1=O` [Compound 24, (Z)-3-isopropyl-5-((5-((6-(trifluoromethyl)-1H-benzo[d]imidazol-2-yl)thio)furan-2-yl)methylene)thiazolidine-2,4-dione]: the IC50 stood at 0.64 µM in assay [1] (16 h), 7.94 µM in assay [2], 12.5 µM in assay [3] and 11.2 µM in assay [4].

As for `COc1ccc2nc(Sc3ccc(/C=C4\SC(=O)N(C(C)C)C4=O)o3)[nH]c2c1` [Compound 5, (Z)-3-isopropyl-5-((5-((6-methoxy-1H-benzo[d]imidazol-2-yl)thio)furan-2-yl)methylene)thiazolidine-2,4-dione], the IC50 in assay [1] (16 h) was 1.19 µM; in assay [2], 42.1 µM; in assay [3] it was 34.5 µM; in assay [4] it was more than 50 µM.

`O=C(CCCC[C@H]1SC[C@H]2NC(=O)N[C@H]21)NCCCN1C(=O)S/C(=C\c2ccc(Sc3nc4ccccc4[nH]3)o2)C1=O` [Compound 27, N-(3-((Z)-5-((5-((1H-benzo[d]imidazol-2-yl)thio)furan-2-yl)methylene)-2,4-dioxothiazolidin-3-yl)propyl)-5-((3aR,4R,6aS)-2-oxohexahydro-1H-thieno[3,4-d]imidazol-4-yl)pentanamide]: the IC50 is 2.28 µM in assay [1] (16 h), 12.2 µM in assay [2], more than 50 µM in assay [3] and 26 µM in assay [4].

For `CC(C)N1C(=O)S/C(=C\c2ccc(Sc3nc4ccccc4o3)o2)C1=O` [Compound 6, (Z)-5-((5-(benzo[d]oxazol-2-ylthio)furan-2-yl)methylene)-3-isopropylthiazolidine-2,4-dione], the concentration for half-maximal inhibition (IC50) in assay [1] (16 h) is 9.39 µM; in assay [2], 37.2 µM; in assay [3] it was more than 50 µM; in assay [4], more than 50 µM.

Regarding `O=C1NC(=O)/C(=C/c2ccc(Sc3nc4ccccc4[nH]3)o2)N1` [Compound 2, (Z)-5-((5-((1H-benzo[d]imidazol-2-yl)thio)furan-2-yl)methylene)imidazolidine-2,4-dione], the IC50 in assay [1] (16 h) was 7.5 µM; in assay [2], more than 50 µM; in assay [3] it was more than 50 µM; in assay [4], more than 50 µM.

For the compound `CC(C)N1C(=O)N/C(=C\c2ccc(Sc3nc4ccc(Cl)cc4[nH]3)o2)C1=O` [Compound 22, (Z)-5-((5-((6-chloro-1H-benzo[d]imidazol-2-yl)thio)furan-2-yl)methylene)-3-isopropylimidazolidine-2,4-dione], the IC50 in assay [1] (16 h) amounted to 1.05 µM; in assay [2], 16.5 µM; in assay [3], 45.3 µM; in assay [4] it was 6.09 µM.

With `CC(C)N1C(=O)N/C(=C\c2ccc(Sc3nc4ccccc4[nH]3)o2)C1=O` [Compound 8, (Z)-5-((5-((1H-benzo[d]imidazol-2-yl)thio)furan-2-yl)methylene)-3-isopropylimidazolidine-2,4-dione], the IC50 in assay [1] (16 h) is 0.83 µM; in assay [2], more than 50 µM; in assay [3], more than 50 µM; in assay [4], 11.8 µM.

On to `O=C(O)CN1C(=O)S/C(=C\c2ccc(Sc3nc4ccccc4[nH]3)o2)C1=O` [Compound 26], for which the IC50 is 33.6 µM in assay [1] (16 h), more than 50 µM in assay [2], more than 50 µM in assay [3] and more than 50 µM in assay [4].

Take `O=C1C/C(=C\c2ccc(Sc3nc4ccccc4[nH]3)o2)C(=O)N1` [Compound 9, (E)-3-((5-((1H-benzo[d]imidazol-2-yl)thio)furan-2-yl)methylene)pyrrolidine-2,5-dione]: the IC50 in assay [1] (16 h) is 9.02 µM; in assay [2], more than 50 µM; in assay [3], more than 50 µM; in assay [4], more than 50 µM.

With `CC(C)N1C(=O)S/C(=C\c2ccc(Sc3nc4cc(Cl)c(Cl)cc4[nH]3)o2)C1=O` [Compound 25, (Z)-5-((5-((5,6-dichloro-1H-benzo[d]imidazol-2-yl)thio)furan-2-yl)methylene)-3-isopropylthiazolidine-2,4-dione], the IC50 was determined as 0.63 µM in assay [1] (16 h), 3.95 µM in assay [2], 7.88 µM in assay [3] and 5.51 µM in assay [4].

For the compound `CC(C)c1ccc2nc(Sc3ccc(/C=C4\SC(=O)N(C(C)C)C4=O)o3)[nH]c2c1` [Compound 29, (Z)-3-isopropyl-5-((5-((6-isopropyl-1H-benzo[d]imidazol-2-yl)thio)furan-2-yl)methylene)thiazolidine-2,4-dione], the IC50 worked out at 0.64 µM in assay [1] (16 h), 15.3 µM in assay [2], 19.9 µM in assay [3] and 13.1 µM in assay [4].

For `COC(=O)c1ccc(Sc2nc3ccccc3[nH]2)o1` [Compound 51, Methyl 5-((1H-benzo[d]imidazol-2-yl)thio)furan-2-carboxylate], the “c-Myc reporter assay IC50” value in assay [1] is given as “non active”.

In the case of `Cc1cccc2nc(Sc3ccc(/C=C4\SC(=O)N(C(C)C)C4=O)o3)[nH]c12` [Compound 23, (Z)-3-isopropyl-5-((5-((7-methyl-1H-benzo[d]imidazol-2-yl)thio)furan-2-yl)methylene)thiazolidine-2,4-dione], the IC50 in assay [1] (16 h) is 1.5 µM; in assay [2], 33.9 µM; in assay [3] it was 28.2 µM; in assay [4], 10.5 µM.

As to `CC(C)N1C(=O)S/C(=C\c2cc3ccc(Sc4nc5ccccc5[nH]4)cc3o2)C1=O` [Compound 68, (Z)-5-((6-((1H-benzo[d]imidazol-2-yl)thio)benzofuran-2-yl)methylene)-3-isopropylthiazolidine-2,4-dione], the IC50 in assay [1] (16 h) came to 0.54 µM.

For the compound `CC(C)N1C(=O)S/C(=C\c2ccc(Sc3nc4ccc([N+](=O)[O-])cc4[nH]3)o2)C1=O` [Compound 57, (Z)-3-isopropyl-5-((5-((6-nitro-1H-benzo[d]imidazol-2-yl)thio)furan-2-yl)methylene)thiazolidine-2,4-dione], the IC50 in assay [1] (16 h) is 0.36 µM.

In the case of `CC(C)N1C(=O)S/C(=C\c2ccc(Sc3nc4ccccc4[nH]3)cc2)C1=O` [Compound 64, (Z)-5-(4-((1H-benzo[d]imidazol-2-yl)thio)benzylidene)-3-isopropylthiazolidine-2,4-dione], the half-inhibitory concentration (IC50) in assay [1] (16 h) was determined as 1.82 µM.

As to `COC(=O)c1ccc2nc(Sc3ccc(/C=C4\SC(=O)N(C(C)C)C4=O)o3)[nH]c2c1` [Compound 63, (Z)-methyl 2-((5-((3-isopropyl-2,4-dioxothiazolidin-5-ylidene)methyl)furan-2-yl)thio)-1H-benzo[d]imidazole-6-carboxylate], the half-maximal inhibitory concentration (IC50) in assay [1] (16 h) amounted to 1.49 µM.

Regarding `O=C(O)CN1C(=O)S/C(=C\c2ccc(Sc3nc4ccccc4[nH]3)o2)C1=O` [Compound 13, (Z)-2-(5-((5-((1H-benzo[d]imidazol-2-yl)thio)furan-2-yl)methylene)-2,4-dioxothiazolidin-3-yl)acetic acid], in assay [1], the “c-Myc reporter assay IC50” value is “inactive”.

On to `COC(=O)C(C)N1C(=O)S/C(=C\c2ccc(Sc3nc4ccccc4[nH]3)o2)C1=O` (centres unmarked) [Compound 32], for which the IC50 in assay [1] (16 h) came to 6.24 µM.

As for `O=C(CN1C(=O)S/C(=C\c2ccc(Sc3nc4ccccc4[nH]3)o2)C1=O)N1CCN(c2ccccc2)CC1` [Compound 34], the IC50 in assay [1] (16 h) was found to be 7.01 µM.

Turning to `O=C(Nc1ccccc1)c1ccc(Sc2nc3ccccc3[nH]2)o1` [Compound 42, 5-((1H-benzo[d]imidazol-2-yl)thio)-N-phenylfuran-2-carboxamide], the IC50 in assay [1] (16 h) was determined as 3.32 µM.

With `CN1C(=O)C(=Cc2ccc(Sc3nc4ccccc4[nH]3)o2)C(=O)N(C)C1=O` [Compound 53, 5-((5-((1H-benzo[d]imidazol-2-yl)thio)furan-2-yl)methylene)-1,3-dimethylpyrimidine-2,4,6(1H,3H,5H)-trione], the IC50 in assay [1] was determined as 26.8 µM.

For the compound `Cc1ccc(Sc2ccc(/C=C3\SC(=O)N(C(C)C)C3=O)o2)cc1` [Compound 39], the IC50 in assay [1] (16 h) was more than 100 µM.
